Assay results: patent US20220017468A1, “ISOQUINOLINE COMPOUNDS AND THEIR USE IN TREATING AhR IMBALANCE” (Dermavant Sciences GmbH, priority 2020, published 2022)
Where “and” joins values, the source holds several entries; their conditions need not be identical. Equal entries are not always repeated. Where two headings read alike, the source gives them in different places.

Assays:
Nrf2 = experiment: luciferase-based reporter assay for NQO1 gene expression; type: cell-based
[1] = skin binding in human skin homogenate; type: in vitro ADME; conditions: 25, 50 and 100 ng/mL
[2] = tested on: primary human cell culture platforms; experiment: BioMAP Diversity Plus profiling; type: cell-based
[3] = estimation of human plasma concentration following topical administration; conditions: for Estimated AUC24 h / Estimated Css: 70 kg
Procedure: The plasma clearance (CLhuman) was estimated from the in vitro and preclinical pharmacokinetic studies.
An estimated skin flux prediction was conducted, assuming a 2-hour lag time and receiving fluid levels obtained every two hours at the LLOQ level for 16 hours, leading to a calculated flux of 0.048 ng/cm^2/h.
Healthy skin is an effective protective barrier to most xenobiotics; therefore the relevance of a flux value derived from the ex vivo skin penetration assay, which uses healthy human skin from abdominoplasty surgeries, may not translate to what is observed following application onto unhealthy skin. […] Calculation of human systemic exposure with a 100-fold increase in flux has also been performed to account for the worst case estimation. A 10% body surface area (1800 cm^2) in human was used for this estimation. Therefore, for the purpose of safety margin estimation and considering the conditions explained herein, the estimated Css,human is 0.34 ng/mL with the corresponding AUCss, 24 h is 8.2 ng*h/mL. In clinical practice, topical treatment for atopical dermatitis can be up to 50% BSA (9000 cm2) and therefore corresponding estimated Css,human and AUCss, 24 h with 10-fold increase in flux is 0.17 ng/mL and 4.1 ng*h/mL.

[4] = metabolic stability in liver microsomes, dog; type: in vitro ADME
[5] = oxygen radical absorbance capacity (ORAC) test; type: biochemical; conditions: Trolox Equivalent Values
AhR = biological target: T1, AhR (Homo sapiens, UniProt P35869); experiment: CYP1A1-bla LS-180 AhR agonist assay; type: cell-based
T1 construct: LS-180 cells stably transfected with a CYP1A1 promoter-linked beta-lactamase gene reporter construct; endogenous in cells; host or cells: CYP1A1-bla LS-180 cells
T1 sequence (P35869 11-848): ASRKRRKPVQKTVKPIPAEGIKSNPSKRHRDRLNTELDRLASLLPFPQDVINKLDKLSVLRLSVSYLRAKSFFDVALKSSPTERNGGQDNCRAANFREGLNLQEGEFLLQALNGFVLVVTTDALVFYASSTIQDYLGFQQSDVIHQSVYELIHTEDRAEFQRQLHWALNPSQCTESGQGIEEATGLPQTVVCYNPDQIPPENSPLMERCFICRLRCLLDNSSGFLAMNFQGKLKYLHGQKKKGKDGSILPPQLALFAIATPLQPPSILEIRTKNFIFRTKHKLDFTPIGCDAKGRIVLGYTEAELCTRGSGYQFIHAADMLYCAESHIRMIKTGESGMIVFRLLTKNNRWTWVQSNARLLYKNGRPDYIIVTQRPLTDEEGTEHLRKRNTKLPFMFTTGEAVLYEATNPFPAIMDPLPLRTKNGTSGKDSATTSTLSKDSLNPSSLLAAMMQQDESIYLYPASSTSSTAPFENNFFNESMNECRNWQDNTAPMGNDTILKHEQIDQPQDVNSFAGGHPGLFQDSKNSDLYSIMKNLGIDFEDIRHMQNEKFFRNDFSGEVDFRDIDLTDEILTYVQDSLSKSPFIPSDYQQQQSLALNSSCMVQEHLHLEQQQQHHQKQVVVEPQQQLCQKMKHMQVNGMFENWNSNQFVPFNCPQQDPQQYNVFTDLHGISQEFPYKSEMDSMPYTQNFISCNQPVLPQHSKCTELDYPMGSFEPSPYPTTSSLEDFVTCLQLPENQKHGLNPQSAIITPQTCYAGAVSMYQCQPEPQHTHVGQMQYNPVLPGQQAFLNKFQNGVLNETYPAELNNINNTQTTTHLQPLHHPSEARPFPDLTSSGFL
Procedure: LS-180 cells stably transfected with a CYP1A1 promoter-linked beta-lactamase gene reporter construct (termed CYP1A1-bla LS-180 cells) were used to characterize the ability of compounds to activate AhR. In brief, AhR activity was measured using the LiveBLAzer assay kit which utilizes a beta lactamase (bla) reporter gene downstream of CYP1A1 promoter, which metabolizes its substrate to give a fluorescent readout. For the agonist assay, CYP1A1-bla LS-180 cells were treated with increasing concentrations of compound over a 100,000-fold concentration range.
CYP1A1-bla LS-180 cells in exponential growth phase were washed twice with DPBS then seeded into 96-well microplates (50,000 cells/well) and allowed to adhere. […] The LiveBLAzer FRET B/G β-lactamase substrate was added in the final hour of incubation and resulting blue/green fluorescence was measured using a 96-well microplate reader.
AhR activity was measured as a function of beta-lactamase expression using a fluorescence resonance energy transfer-based readout. TCDD and FICZ were used as controls to validate the system.

[6] = metabolic stability in hepatocytes, minipig; type: in vitro ADME
[7] = metabolic stability in liver microsomes, human; type: in vitro ADME
CB2 = biological target: T2, CB2 (Homo sapiens, UniProt P34972); experiment: fluorescence-based agonist assay using genetically modified yeast; type: cell-based; conditions: read-out: CB2 pEC50 (converted)
T2 construct: expressed in transfected cells

[8] = pharmacokinetics after a single intravenous dose, rat; type: in vivo; conditions: plasma, 1 mg/kg intravenous
Text: Bioavailability was 46.5% and 41.0% for 30% Captisol and 30% Cavitron, respectively. 30% Captisol formulation was selected for the 7-day subcutaneous toxicity study in rat.

[9] = metabolic stability in hepatocytes, dog; type: in vitro ADME
[10] = blood-to-plasma ratio and blood cell association, rat; type: in vitro ADME
Human Plasma Proteins = experiment: plasma protein binding by Rapid Equilibrium Dialysis, human; type: in vitro ADME
Text: (§1) The blood-to-plasma ratios were similar across species (1.22-1.36, Table 9).

[11] = as above; type: in vitro ADME; conditions: human, plasma
Text: as §1

[12] = flux 0.48 (10-fold increase), dose area 9000 cm^2, clearance 6 ml/min/kg
[13] = flux 4.8 (100-fold increase), dose area 1800 cm^2, clearance 6 ml/min/kg

T2 sequence (P34972 whole entry, species assumed): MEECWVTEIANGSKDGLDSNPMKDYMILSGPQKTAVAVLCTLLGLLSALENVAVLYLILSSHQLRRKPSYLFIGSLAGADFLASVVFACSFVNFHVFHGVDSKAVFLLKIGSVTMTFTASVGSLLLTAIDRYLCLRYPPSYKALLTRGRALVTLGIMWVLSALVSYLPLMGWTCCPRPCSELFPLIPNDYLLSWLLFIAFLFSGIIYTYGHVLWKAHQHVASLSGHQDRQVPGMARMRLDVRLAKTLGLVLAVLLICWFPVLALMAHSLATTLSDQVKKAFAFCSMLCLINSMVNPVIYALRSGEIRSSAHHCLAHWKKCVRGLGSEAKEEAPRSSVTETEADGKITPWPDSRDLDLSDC

Structure (SMILES): CC(C)c1c(O)cc(-c2cc3ccccc3cn2)cc1O
- Nrf2 pEC50 (Nrf2): pEC50 = 7.0
- fraction unbound ([1]; human dermis homogenate): 0.341 ± 0.115
- fraction unbound ([1]; human epidermis homogenate): 0.513 ± 0.011
- fraction unbound ([1]; whole human skin homogenate): 0.219 ± 0.0072
- effect on B cell proliferation ([2]; 1 μM, 330 nM, 110 nM and 37 nM): anti-proliferative to B cells
- increased biomarkers ([2]; 1 μM, 330 nM, 110 nM and 37 nM): increased IL8, IL1α, sPGE2, ICAM-1, and E-selectin
- reduced biomarkers (M-CSF, sIL-17A, sIL-2, sIL-6, sIL-10, Eot3, sTNFα, MCP-1, VCAM-1, MIP-1) ([2]; 1 μM, 330 nM, 110 nM and 37 nM): reductions in various cytokines/chemokines
- sIL-17 in BioMAP ([2]; profiles overlaid): observed reduction in sIL-17
- lowest predicted human clearance ([3]; allometric scaling with plasma protein binding correction): 0.36 L/h/kg
- Topical Skin Flux (calculated) ([3]; assuming 2-hour lag time and receiving fluid levels at the LLOQ for 16 hours): 0.048 ng/cm^2/h
- Estimated AUC24 h [3, 12]: 0.0041 µg·h/mL
- Estimated Css [3, 12]: 0.17 ng/mL
- Estimated AUC24 h [3, 13]: 0.0082 µg·h/mL
- Estimated Css [3, 13]: 0.34 ng/mL
- CLint, mic ([4]; dog liver microsomes, 0.5 μM): 1.59 mL/min/g liver
- CLint scaled at 0.5 μM ([4]; dog liver microsomes, 0.5 μM, read-out: Scaled CLint, mic): 3.1 L/h/kg
- half-life at 0.5 μM ([4]; dog, microsomes): 32.1 min
- Hydroxyl-radical [5]: 759 TEV
- Peroxyl radical-hydro [5]: 3267 TEV
- Peroxyl radical-lipo [5]: 1397 TEV
- Peroxynitrite [5]: 100 TEV
- Singlet oxygen [5]: 2914 TEV
- Total ORAC value [5]: 8437 TEV
- EC50 (AhR): 0.0158 µM
- in vitro-to-in vivo extrapolation (IVIVE) ratio ([6]; minipig): 0.27
- CLint, hep ([6]; minipig hepatocytes, 0.5 μM): 6.27 mL/min/g liver
- half-life at 0.5 μM ([6]; minipig hepatocytes, 0.5 μM): 26.5 min
- CLint scaled at 0.5 μM ([6]; minipig hepatocytes, 0.5 μM, read-out: Scaled CLint, hep): 6.3 L/h/kg
- CLint, mic ([7]; human liver microsomes, 0.5 μM): 1.35 mL/min/g liver
- CLint scaled at 0.5 μM ([7]; human liver microsomes, 0.5 μM, read-out: Scaled CLint, mic): 1.99 L/h/kg
- half-life at 0.5 μM ([7]; human, microsomes): 40.9 min
- EC50 (CB2): 0.2 µM
- AUC(0-inf) ([8]; mean n = 3): 0.0957 µg·h/mL
- half-life ([8]; mean n = 3): 41.4 min
- clearance ([8]; mean n = 3, read-out: CLp): 10.5 L/h/kg
- Vd ([8]; mean n = 3, read-out: Vss): 6 L/kg
- half-life at 0.5 μM [9]: 31.9 min
- CLint, hep ([9]; 0.5 μM): 7.39 mL/min/g liver
- CLint scaled at 0.5 μM ([9]; read-out: Scaled CLint, hep): 14.4 L/h/kg
- % Blood Cell Association Mean (% CV) ([10]; 1 μM): 60.2 (4.37) %
- % Blood Cell Association Replicate ([10]; 1 μM): 58.9% and 58.3% and 63.1%
- Blood-to-plasma Ratio Replicate ([10]; 1 μM): 1.29 and 1.46
- Mean % Blood Stability ([10]; 1 μM): 104%
- blood plasma ratio at 1 μM ([10]; read-out: Blood-to-plasma Ratio Mean (% CV)): 1.36
- blood plasma ratio at 1 μM ([10]; read-out: Blood-to-plasma Ratio Replicate): 1.31
- recovery at 2 μM (Human Plasma Proteins): 102%
- % Unbound Replicate (Human Plasma Proteins; 2 μM): 1.05% and 1.13%
- Mean % Stability at 4 hrs (Human Plasma Proteins; 2 μM): 101%
- fraction unbound at 2 μM ([11]; read-out: % Unbound Mean (% CV)): 0.0108
- fraction unbound at 2 μM ([11]; read-out: % Unbound Replicate): 0.0106
- fraction unbound at 2 μM ([11]; read-out: Mean % Bound (converted)): 0.011
